Consider twelve compounds from PubChem BioAssay (NCI).

Molecules are shown by their SMILES.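 96-well plates; 48 h exposure; 5 concentrations. Endpoints by linear interpolation between flanking doses. Not reached: highest tested concentration assigned. The concentration for 50% growth inhibition is given as GI50. TGI: total growth inhibition.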

What all share (assay): growth of human tumour cells (NCI), 48 h
Experiment [1] relates to SK-MEL-28 melanoma.
Experiment [2] has as its system CCRF-CEM leukemia.
Experiment [3] deals with HOP-92 NSCLC.
The test system of experiment [4] is UACC-257 melanoma.
Experiment [5] relates to A549 NSCLC.
The test system of experiment [6] is NCI-H23 lung.
Experiment [7] deals with HCT-15 colon.
For experiment [8], the system named is SK-MEL-5 melanoma.
Experiment [9] concerns KM12 colon.
In experiment [10] the test system is SK-MEL-2 melanoma.

Regarding `NS(=O)(=O)c1ccc(N=Nc2c(O)[nH]c3ccc(C(=O)NCc4ccncc4)cc23)cc1`, the GI50 in [1], in [2], in [3], in experiment [4], in experiment [5] and in [6] was more than 25 µM each time. Moreover, the GI50 in experiment [7], in experiment [8], in experiment [9] and in [10] was more than 25 µM in each case. Moreover, the TGI in experiment [1], in [2], in experiment [3], in [4], in experiment [5] and in experiment [6] was more than 25 µM throughout. Further, the TGI in experiment [7], in [8], in experiment [9] and in [10] was more than 25 µM in each case.

Consider `O=C(O)c1cc(=O)c2c([nH]c3ccccc32)s1`, for which the TGI in [1], in [2], in experiment [3], in [4], in [5] and in experiment [6] was more than 100 µM each time. The TGI in experiment [7], in [8], in experiment [9] and in [10] was more than 100 µM each time.

Turning to `COc1cc2ncnc(-n3ncc4cc(NC(=O)Nc5ccc(Cl)c(Cl)c5)ccc43)c2cc1OC`, the GI50 in experiment [1] was 1.57 µM; in experiment [2], 4.01 µM; in experiment [3], 1.92 µM; in experiment [4], 3.23 µM; in experiment [5] it was 2.69 µM; in [6] it was 1.93 µM. Also, the GI50 is 1.93 µM in [7], 2.09 µM in experiment [8], 0.0514 µM in experiment [9] and 2.31 µM in [10]. Besides, the TGI was determined as 3.24 µM in experiment [1]; 42.3 µM in experiment [2]; 4.19 µM in experiment [3]; 6.79 µM in [4]; 5.75 µM in [5]; 4.24 µM in experiment [6]. The TGI in experiment [7] was determined as 4.87 µM; in [8] it was 3.89 µM; in [9] it was 9.66 µM; in experiment [10], 5.01 µM.

As for `COc1cccc(CN(C)c2ccc(CO)c(Cl)c2)c1`, the GI50 is 24.2 µM in [1]; 39.3 µM in experiment [2]; 6.97 µM in [3]; 0.216 µM in experiment [4]; 4.09 µM in [5]; 18.6 µM in experiment [6]. Besides, the GI50 in experiment [7] is 24 µM; in [8] it was 7.5 µM; in [9], 29.8 µM; in [10], 7.78 µM. For the same compound, the TGI was more than 100 µM in [1]; more than 100 µM in experiment [2]; 56.9 µM in [3]; 0.679 µM in experiment [4]; 40.1 µM in [5]; more than 100 µM in experiment [6]. The TGI was more than 100 µM in experiment [7], 21.4 µM in [8], more than 100 µM in experiment [9] and 42.5 µM in [10].

On to `CN1CCN(Cc2ccc(NC(=O)c3cncc(C#Cc4cnc(N)cc4C#N)c3)cc2C(F)(F)F)CC1`, for which the GI50 in experiment [1] is 1.11 µM; in experiment [2], 3.4 µM; in [3], 0.906 µM; in [4], 3.24 µM; in experiment [5], 3.89 µM; in experiment [6] it was 2.24 µM. Besides, the GI50 in experiment [7] is 3.87 µM; in experiment [8], 2.29 µM; in [9], 0.0632 µM; in experiment [10] it was 1.15 µM. In addition, the TGI in experiment [1] was 9 µM; in experiment [2], 42.7 µM; in experiment [3], 4.44 µM; in experiment [4] it was 15.4 µM; in experiment [5], 15.4 µM; in experiment [6] it was 13.7 µM. In addition, the TGI in experiment [7] is 13.9 µM; in [8], 7.11 µM; in experiment [9], 13.3 µM; in [10], 3.44 µM.

Consider `O=S1(=O)N(Cc2ccccc2)[C@@H](Cc2ccccc2)[C@H](O)[C@H](O)[C@H](Cc2ccccc2)N1Cc1ccccc1`, for which the GI50 in [1] was 3.35 µM; in [2] it was 5.96 µM; in [3] it was 3.15 µM; in experiment [4], 2.89 µM; in [5], 2.99 µM; in [6], 3.11 µM. Besides, the GI50 was 4.37 µM in experiment [7], 3.05 µM in experiment [8], 2.94 µM in [9] and 2.8 µM in [10]. Moreover, the TGI in experiment [1] is 6.9 µM; in [2], more than 20 µM; in [3], 6.68 µM; in experiment [4] it was 5.93 µM; in experiment [5], 7.62 µM; in experiment [6], 6.71 µM. Further, the TGI in experiment [7] was 18.2 µM; in experiment [8] it was 5.8 µM; in experiment [9], 5.84 µM; in experiment [10] it was 5.76 µM.

In the case of `O=c1nc(-c2ccccc2)cc(CC(O)c2ccc(Cl)c(Cl)c2)[nH]1` (stereo not given), the TGI in experiment [1], in experiment [2], in experiment [3], in [4], in experiment [5] and in [6] was more than 100 µM each time. The TGI in [7] was more than 100 µM; in experiment [8], more than 100 µM; in [9], more than 100 µM; in experiment [10], 65.3 µM.

Regarding `Oc1c(Cl)cc(Cl)c2ccc(Cn3cc(-c4cc(C(F)(F)F)cc(C(F)(F)F)c4)nn3)nc12`, the GI50 in experiment [1] was 1.7 µM; in experiment [2] it was 0.305 µM; in [3], 1.45 µM; in experiment [4], 1.22 µM; in experiment [5], 15.8 µM; in [6] it was 3.05 µM. Besides, the GI50 is 1.58 µM in experiment [7], 2.98 µM in [8], 10.5 µM in experiment [9] and 2.71 µM in experiment [10]. For the same compound, the TGI worked out at 3.48 µM in experiment [1]; 5.49 µM in experiment [2]; 4.03 µM in [3]; 2.99 µM in [4]; 31.6 µM in experiment [5]; 9.88 µM in [6]. For the same compound, the TGI worked out at 3.55 µM in experiment [7], 10.7 µM in [8], 23.4 µM in experiment [9] and 9.56 µM in experiment [10].

Turning to `Cc1ccc2nc(-c3ccc(OCC(=O)N=Nc4c(O)[nH]c5ccccc45)cc3)[nH]c2c1`, the GI50 in experiment [1] was 2.61 µM; in experiment [2] it was 1.93 µM; in [3] it was 2.79 µM; in experiment [4] it was 29.8 µM; in experiment [5], 2.38 µM; in experiment [6], 3.53 µM. The GI50 in experiment [7] is 8.69 µM; in experiment [8], 11.9 µM; in [9], 3.55 µM; in experiment [10] it was 3.71 µM. In addition, the TGI in experiment [1] is 7 µM; in experiment [2], 11.3 µM; in experiment [3] it was 18.2 µM; in experiment [4], more than 100 µM; in [5] it was 6.32 µM; in experiment [6], 14.5 µM. Besides, the TGI in experiment [7] was more than 100 µM; in experiment [8], 56.1 µM; in experiment [9], 13.2 µM; in [10], 14.7 µM.

Turning to `C=C/C(C)=C/C[C@]1(C)[C@H](C)[C@@H](OC(=O)CCC)[C@H](O)[C@@]23C(=C[C@H](OC)C[C@@H]12)[C@@H](OC(=O)CCC)O[C@H]3OC(C)=O`, the GI50 in experiment [1] is 0.431 µM; in experiment [2], 0.382 µM; in experiment [3] it was 0.303 µM; in experiment [4], 0.854 µM; in experiment [5] it was 1.65 µM; in [6], 1.19 µM. The GI50 in experiment [7] was 0.34 µM; in experiment [8], 0.704 µM; in experiment [9], 0.55 µM; in experiment [10] it was 0.549 µM. For the same compound, the TGI in [1] was 1.63 µM; in [2], 1.66 µM; in [3] it was 1.13 µM; in experiment [4] it was 2.56 µM; in experiment [5], 3.62 µM; in experiment [6], 2.83 µM. For the same compound, the TGI turned out to be 1.29 µM in experiment [7], 2.03 µM in experiment [8], 1.96 µM in [9] and 2.09 µM in [10].

Consider `NS(=O)(=O)c1ccc(N2N=C3c4ccccc4CC3C2c2cccs2)cc1` (stereo not given), for which the GI50 was 75.6 µM in [1]; 31.8 µM in experiment [2]; 25.8 µM in experiment [3]; 29.7 µM in experiment [4]; 13.1 µM in experiment [5]; 20.3 µM in [6]. The GI50 in experiment [7] was 34.7 µM; in experiment [8], 18 µM; in [9] it was 15.7 µM; in experiment [10] it was more than 100 µM. Besides, the TGI is more than 100 µM in [1]; more than 100 µM in [2]; 55.8 µM in experiment [3]; 73.7 µM in experiment [4]; 32.1 µM in experiment [5]; 48.7 µM in experiment [6]. The TGI in experiment [7] was more than 100 µM; in experiment [8] it was 43.5 µM; in experiment [9], 57.2 µM; in experiment [10] it was more than 100 µM.

In the case of `O=C(O)/C=C\C(=O)Nc1ccccn1`, the TGI in experiment [1], in experiment [2], in experiment [3], in [4], in [5] and in [6] was more than 100 µM throughout. Also, the TGI in experiment [7], in experiment [8], in experiment [9] and in experiment [10] was more than 100 µM each time.
